In patent US9073942B2, “Antiviral compounds with a heterotricycle moiety” (Lupin Limited, priority 2012, dated 2015):

What was measured:
[1] = test system: bicistronic genotype 2a replicon in Huh 7.5 cells; test: HCV replicon assay, genotype 2a (Huh7.5/J6/JFH1/EMCVIRES/hRlucNeo cell line, Renilla luciferase readout); assay type: cell-based; conditions: Hepatitis C virus, Huh7.5, 72 h, read-out: Gt2a IC50
Description: (§1) Anti-viral activity of the compounds of the invention was monitored using an HCV replicon assay. The Huh7.5 Con1/SG-Neo(I)hRluc2aUb cell line persistently expressing a bicistronic genotype 1b replicon in Huh 7.5 cells and the Huh7.5/J6/JFH1/EMCVIRES/hRlucNeo cell line expressing a bicistronic genotype 2a replicon in Huh 7.5 cells were obtained from Apath LLC. These cell lines were used to test inhibition of replicon levels by test compound using Renilla luciferase enzyme activity readout as a measure of viral replication efficiency.
(§2) Briefly, 7000-7500 cells were seeded in 96 well black clear bottom plates and allowed to adhere overnight. The next day each compound was added in triplicate to the cells at the desired concentration with a final DMSO concentration of 0.5%. Cells in media alone and cells incubated without drug with 0.5% DMSO served as controls. The plates were incubated for 72h at 37° C. prior to running the luciferase assay. Enzyme activity was measured using Renilla-Glo Luciferase Assay kit from Promega as per the manufacturer's instructions. The following equation was used to generate the percent inhibition value for each test concentration.
(§3) The IC50 value was determined using GraphPad Prism and the following equation: Y=Bottom+(Top−Bottom)(1+10^((Log IC50−X)*Hill slope))
(§4) IC50/values % inhibitions of compounds were determined 2-3 times in the replicon assays.

[2] = test system: bicistronic genotype 1b replicon in Huh 7.5 cells; test: HCV replicon assay, genotype 1b (Huh7.5 Con1/SG-Neo(I)hRluc2aUb cell line, Renilla luciferase readout); assay type: cell-based; conditions: Hepatitis C virus, Huh7.5, 72 h, read-out: Gt1b IC50
Description: as §1, §2, §3, §4

| SMILES | IC50 [1] | IC50 [2] |
| --- | --- | --- |
| COC(=O)N[C@H](C(=O)N1CCC[C@H]1c1ncc(-c2ccc3c(c2)OCc2cc(-c4cnc([C@@H]5CCCN5C(=O)[C@@H](NC(=O)OC)C(C)C)[nH]4)sc2-3)[nH]1)C(C)C [Compound 1, dimethyl((2S,2′S)-((2S,2′S)-2,2′-(5,5′-(4H-thieno[3,2-c]chromene-2,7-diyl)bis(1H-imidazole-5,2-diyl))bis(pyrrolidine-2,1-diyl))bis(3-methyl-1-oxobutane-2,1-diyl))dicarbamate] | 0.001 to 0.999 nM | 0.001 to 0.999 nM |
| COC(=O)N[C@H](C(=O)N1CCC[C@H]1c1ncc(-c2ccc3c(c2)OCCc2cc(-c4cnc([C@@H]5CCCN5C(=O)[C@@H](NC(=O)OC)C(C)C)[nH]4)sc2-3)[nH]1)C(C)C [Compound 2, dimethyl((2S,2′S)-((2S,2′S)-2,2′-(5,5′-(4,5-dihydrobenzo[b]thieno[2,3-d]oxepine-2,8-diyl)bis(1H-imidazole-5,2-diyl))bis(pyrrolidine-2,1-diyl))bis(3-methyl-1-oxobutane-2,1-diyl))dicarbamate] | 1 to 100 nM | 0.001 to 0.999 nM |
| COC(=O)N[C@H](C(=O)N1CCC[C@H]1c1nc(Cl)c(-c2ccc3c(c2)OCCc2cc(-c4[nH]c([C@@H]5CCCN5C(=O)[C@@H](NC(=O)OC)C(C)C)nc4Cl)sc2-3)[nH]1)C(C)C [Compound 3, dimethyl((2S,2′S)-((2S,2′S)-2,2′-(5,5′-(4,5-dihydrobenzo[b]thieno[2,3-d]oxepine-2,8-diyl)bis(4-chloro-1H-imidazole-5,2-diyl))bis(pyrrolidine-2,1-diyl))bis(3-methyl-1-oxobutane-2,1-diyl))dicarbamate] | 1 to 100 nM | 0.001 to 0.999 nM |
| COC(=O)N[C@H](C(=O)N1CCC[C@H]1c1ncc(-c2ccc3c(ccc4sc(-c5cnc([C@@H]6CCCN6C(=O)[C@@H](NC(=O)OC)C(C)C)[nH]5)nc43)c2)[nH]1)C(C)C [Compound 4, dimethyl((2S,2′S)-((2S,2′S)-2,2′-(5,5′-(naphtho[1,2-d]thiazole-2,7-diyl)bis(1H-imidazole-5,2-diyl))bis(pyrrolidine-2,1-diyl))bis(3-methyl-1-oxobutane-2,1-diyl))dicarbamate] | > 100 nM | 0.001 to 0.999 nM |
| COC(=O)N[C@H](C(=O)N1CCC[C@H]1c1ncc(-c2ccc3c(c2)CCc2cc(-c4cnc([C@@H]5CCCN5C(=O)[C@@H](NC(=O)OC)C(C)C)[nH]4)sc2-3)[nH]1)C(C)C [Compound 5, dimethyl((2S,2′S)-((2S,2′S)-2,2′-(5,5′-(4,5-dihydronaphtho[1,2-b]thiophene-2,7-diyl)bis(1H-imidazole-5,2-diyl))bis(pyrrolidine-2,1-diyl))bis(3-methyl-1-oxobutane-2,1-diyl))dicarbamate] | 0.001 to 0.999 nM | 0.001 to 0.999 nM |
| COC(=O)N[C@H](C(=O)N1CCC[C@H]1c1nc(Cl)c(-c2ccc3c(c2)CCc2c-3sc(-c3[nH]c([C@@H]4CCCN4C(=O)[C@@H](NC(=O)OC)C(C)C)nc3Cl)c2Cl)[nH]1)C(C)C [Compound 6, dimethyl((2S,2′S)-((2S,2′S)-2,2′-(5,5′-(3-chloro-4,5-dihydronaphtho[1,2-b]thiophene-2,7-diyl)bis(4-chloro-1H-imidazole-5,2-diyl))bis(pyrrolidine-2,1-diyl))bis(3-methyl-1-oxobutane-2,1-diyl))dicarbamate] | 0.001 to 0.999 nM | 0.001 to 0.999 nM |
| COC(=O)N[C@H](C(=O)N1CCC[C@H]1c1ncc(-c2ccc3c(ccc4cc(-c5cnc([C@@H]6CCCN6C(=O)[C@@H](NC(=O)OC)C(C)C)[nH]5)sc43)c2)[nH]1)C(C)C [Compound 7, dimethyl((2S,2′S)-((2S,2′S)-2,2′-(5,5′-(naphtho[1,2-b]thiophene-2,7-diyl)bis(1H-imidazole-5,2-diyl))bis(pyrrolidine-2,1-diyl))bis(3-methyl-1-oxobutane-2,1-diyl))dicarbamate] | 0.001 to 0.999 nM | 0.001 to 0.999 nM |
| COC(=O)N[C@H](C(=O)N1CCC[C@H]1c1ncc(-c2ccc3c(c2)CCCc2cc(-c4cnc([C@@H]5CCCN5C(=O)[C@@H](NC(=O)OC)C(C)C)[nH]4)sc2-3)[nH]1)C(C)C [Compound 8, dimethyl((2S,2′S)-((2S,2′S)-2,2′-(5,5′-(5,6-dihydro-4H-benzo[6,7]cyclohepta[1,2-b]thiophene-2,8-diyl)bis(1H-imidazole-5,2-diyl))bis(pyrrolidine-2,1-diyl))bis(3-methyl-1-oxobutane-2,1-diyl))dicarbamate] | 0.001 to 0.999 nM | 0.001 to 0.999 nM |
| COC(=O)N[C@H](C(=O)N1CCC[C@H]1c1nc(Cl)c(-c2ccc3c(c2)CCCc2cc(-c4[nH]c([C@@H]5CCCN5C(=O)[C@@H](NC(=O)OC)C(C)C)nc4Cl)sc2-3)[nH]1)C(C)C [Compound 9, dimethyl((2S,2′S)-((2S,2′S)-2,2′-(5,5′-(5,6-dihydro-4H-benzo[6,7]cyclohepta[1,2-b]thiophene-2,8-diyl)bis(4-chloro-1H-imidazole-5,2-diyl))bis(pyrrolidine-2,1-diyl))bis(3-methyl-1-oxobutane-2,1-diyl))dicarbamate] | 0.001 to 0.999 nM | 0.001 to 0.999 nM |
| COC(=O)N[C@H](C(=O)N1C(c2ncc(-c3ccc4c(ccc5cc(-c6cnc(C7[C@H]8CC[C@H](C8)N7C(=O)[C@@H](NC(=O)OC)C(C)C)[nH]6)sc54)c3)[nH]2)[C@H]2CC[C@@H]1C2)C(C)C (stereo partly drawn) [Compound 10, dimethyl((2S,2′S)-((1R,1′R,3S,3′S,4S,4′S)-3,3′-(5,5′-(naphtho[1,2-b]thiophene-2,7-diyl)bis(1H-imidazole-5,2-diyl))bis(2-azabicyclo[2.2.1]heptane-3,2-diyl))bis(3-methyl-1-oxobutane-2,1-diyl))dicarbamate] | 0.001 to 0.999 nM | 0.001 to 0.999 nM |
| COC(=O)N[C@H](C(=O)N1CCC[C@H]1c1ncc(-c2ccc3c(ccc4cc(-c5cnc([C@@H]6[C@H]7CC[C@H](C7)N6C(=O)[C@@H](NC(=O)OC)C(C)C)[nH]5)sc43)c2)[nH]1)C(C)C [Compound 11, methyl((S)-1-((S)-2-(5-(2-(2-((1R,3S,4S)-2-((S)-2-(methoxycarbonyl)amino-3-methylbutanoyl)-2-azabicyclo[2.2.1]heptan-3-yl)-1H-imidazol-5-yl)naphtho[1,2-b]thiophen-7-yl)-1H-imidazol-2-yl)pyrrolidin-1-yl)-3-methyl-1-oxobutan-2-yl)carbamate] | 0.001 to 0.999 nM | 0.001 to 0.999 nM |
